According to article PMC8955712, “Rapid Mining of Novel α-Glucosidase and Lipase Inhibitors from Streptomyces sp. HO1518 Using UPLC-QTOF-MS/MS” (Marine Drugs, 2022):
Like-named read-outs stand apart in the source and are kept apart here.

Tests used:
Assay type in all cases: biochemical
[1] = target: T1, Porcine pancreatic α-amylase (PPA) (Sus scrofa, UniProt P00690); assay: PPA inhibition assay; conditions: for IC50: read-out: IC50 Values Against PPA
T1 construct: purchased Sigma Aldrich Co. (St Louis, MO, USA)
T1 sequence (P00690 16-511): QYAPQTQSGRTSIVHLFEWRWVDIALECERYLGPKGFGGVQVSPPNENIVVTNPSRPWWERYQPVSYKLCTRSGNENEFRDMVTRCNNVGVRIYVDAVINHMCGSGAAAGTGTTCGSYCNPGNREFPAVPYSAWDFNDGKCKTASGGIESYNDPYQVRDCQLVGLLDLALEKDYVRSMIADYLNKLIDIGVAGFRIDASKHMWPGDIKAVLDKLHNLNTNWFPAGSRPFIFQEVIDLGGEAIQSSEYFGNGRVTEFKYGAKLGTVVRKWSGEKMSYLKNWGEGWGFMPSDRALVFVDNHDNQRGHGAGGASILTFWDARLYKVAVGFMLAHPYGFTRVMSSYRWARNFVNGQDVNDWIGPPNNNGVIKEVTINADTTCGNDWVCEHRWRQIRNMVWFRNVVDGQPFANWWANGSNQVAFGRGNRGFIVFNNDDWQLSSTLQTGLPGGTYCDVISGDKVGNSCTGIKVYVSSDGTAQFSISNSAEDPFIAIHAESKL
Description: (§1) The HPLC-grade methanol and acetonitrile were purchased from CINC High Purity Solvents (Shanghai) Co., Ltd. (Shanghai, China). The other solvents were of analytical grade (Sinopharm Chemical Reagent Co., Ltd., Beijing, China). Porcine pancreatic α-amylase (PPA) and PL were purchased from Sigma Aldrich Co. (St Louis, MO, USA). […] Standards 1–9 were previously isolated from Streptomyces sp. HO1518 by our group.

[2] = target: sucrase; assay: Sucrase inhibition assay; conditions: mean ± SD; acarbose positive control; read-out: IC50 Values Against Sucrase
Description: The HPLC-grade methanol and acetonitrile were purchased from CINC High Purity Solvents (Shanghai) Co., Ltd. (Shanghai, China). The other solvents were of analytical grade (Sinopharm Chemical Reagent Co., Ltd., Beijing, China). Porcine pancreatic α-amylase (PPA) and PL were purchased from Sigma Aldrich Co. (St Louis, MO, USA). Sucrase and acarbose were obtained from Shanghai yuanye Bio-Technology Co., Ltd. (Shanghai, China). Orlistat was bought from Shanghai xushuo Bio-Technology Co., Ltd. (Shanghai, China). Standards 1–9 were previously isolated from Streptomyces sp. HO1518 by our group.
The sucrase inhibition assay of compounds 9–20 was evaluated according to the previously reported method.

[3] = target: T2, pancreatic lipase (PL) (Sus scrofa, UniProt P00591); assay: PL (lipase) inhibition assay; conditions: read-out: IC50 Values Against PL
T2 construct: purchased Sigma Aldrich Co. (St Louis, MO, USA)
T2 sequence (P00591 1-450): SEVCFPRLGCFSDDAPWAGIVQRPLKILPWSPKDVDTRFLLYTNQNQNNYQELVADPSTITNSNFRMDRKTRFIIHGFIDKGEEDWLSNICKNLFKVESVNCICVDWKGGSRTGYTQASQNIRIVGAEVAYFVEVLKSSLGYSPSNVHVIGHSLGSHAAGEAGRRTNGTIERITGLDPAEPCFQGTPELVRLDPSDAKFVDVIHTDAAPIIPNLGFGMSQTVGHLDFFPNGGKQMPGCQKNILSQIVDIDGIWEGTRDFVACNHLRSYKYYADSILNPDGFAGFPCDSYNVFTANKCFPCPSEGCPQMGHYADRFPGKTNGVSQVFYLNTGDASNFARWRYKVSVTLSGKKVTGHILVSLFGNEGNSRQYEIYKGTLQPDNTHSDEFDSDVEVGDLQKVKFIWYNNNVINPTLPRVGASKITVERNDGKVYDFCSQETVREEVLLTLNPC
Description: as §1

[4] = mean ± SD, acarbose positive control
[5] = mean ± SD, orlistat positive control

fold more effective than acarbose (α-amylase inhibition) ([1]; ratio of PPA IC50 values, acarbose vs compound)	IC50 [1]	IC50 [2]	IC50 [3]	IC50 [1, 4]	IC50 [3, 5]	SMILES
282 fold	0.03 ± 0.001 µM	17.2 ± 0.76 µM	7.64 ± 0.13 µM			CC1OC(OC2C(CO)OC(OC3C(CO)=CC(NC4C(C)OC(OC5C(CO)OC(OC6C(CO)OC(OC7C(CO)OC(OC8C(CO)OC(O)C(O)C8O)C(O)C7O)C(O)C6O)C(O)C5O)C(O)C4O)C(O)C3O)C(O)C2O)C(O)C(O)C1NC1C=C(CO)C(O)C(O)C1O (stereo not drawn) [Compound 9, acarviostatin II03]
	0.084 ± 0.001 µM	13.1 ± 0.55 µM	12.7 ± 0.76 µM			C[C@H]1O[C@H](O[C@H]2[C@H](O)[C@@H](O)[C@@H](O[C@H]3[C@H](O)[C@@H](O)[C@@H](O[C@H]4[C@H](O)[C@@H](O)C(O)O[C@@H]4CO)O[C@@H]3CO)O[C@@H]2CO)[C@H](O)[C@@H](O)[C@@H]1N[C@H]1C=C(CO)[C@@H](O[C@H]2O[C@H](CO)[C@@H](O[C@H]3O[C@H](C)[C@@H](N[C@H]4C=C(CO)[C@@H](O)[C@H](O)[C@H]4O)[C@H](O)[C@H]3O)[C@H](O)[C@H]2O)[C@H](O)[C@H]1O (stereo partly drawn) [Compound 10, Acarviostatin II02]
	0.079 ± 0.001 µM	4.34 ± 0.24 µM	7.22 ± 0.1 µM			CCC(=O)OC[C@H]1O[C@H](O[C@H]2[C@H](O)[C@@H](O)[C@@H](O[C@H]3[C@H](O)[C@@H](O)C(O)O[C@@H]3CO)O[C@@H]2CO)[C@H](O)[C@@H](O)[C@@H]1O[C@H]1O[C@H](C)[C@@H](N[C@H]2C=C(CO)[C@@H](O[C@H]3O[C@H](CO)[C@@H](O[C@H]4O[C@H](C)[C@@H](N[C@H]5C=C(CO)[C@@H](O)[C@H](O)[C@H]5O)[C@H](O)[C@H]4O)[C@H](O)[C@H]3O)[C@H](O)[C@H]2O)[C@H](O)[C@H]1O (stereo partly drawn) [Compound 11, D6-O-Propionyl-acarviostatin II02]
	0.085 ± 0.006 µM	6.79 ± 0.06 µM	5.48 ± 0.18 µM			CC(C)C(=O)OC[C@H]1O[C@H](O[C@H]2[C@H](O)[C@@H](O)[C@@H](O[C@H]3[C@H](O)[C@@H](O)C(O)O[C@@H]3CO)O[C@@H]2CO)[C@H](O)[C@@H](O)[C@@H]1O[C@H]1O[C@H](C)[C@@H](N[C@H]2C=C(CO)[C@@H](O[C@H]3O[C@H](CO)[C@@H](O[C@H]4O[C@H](C)[C@@H](N[C@H]5C=C(CO)[C@@H](O)[C@H](O)[C@H]5O)[C@H](O)[C@H]4O)[C@H](O)[C@H]3O)[C@H](O)[C@H]2O)[C@H](O)[C@H]1O (stereo partly drawn) [Compound 12, D6-O-Isobutyryl-acarviostatin II02]
	0.092 ± 0.001 µM	7.06 ± 0.09 µM	1.56 ± 0.04 µM			CC(C)CC(=O)OC[C@H]1O[C@H](O[C@H]2[C@H](O)[C@@H](O)[C@@H](O[C@H]3[C@H](O)[C@@H](O)C(O)O[C@@H]3CO)O[C@@H]2CO)[C@H](O)[C@@H](O)[C@@H]1O[C@H]1O[C@H](C)[C@@H](N[C@H]2C=C(CO)[C@@H](O[C@H]3O[C@H](CO)[C@@H](O[C@H]4O[C@H](C)[C@@H](N[C@H]5C=C(CO)[C@@H](O)[C@H](O)[C@H]5O)[C@H](O)[C@H]4O)[C@H](O)[C@H]3O)[C@H](O)[C@H]2O)[C@H](O)[C@H]1O (stereo partly drawn) [Compound 13, D6-O-Isovaleryl-acarviostatin II02]
		2.56 ± 0.12 µM		0.035 ± 0.001 µM	4.21 ± 0.03 µM	CCC(=O)OC[C@H]1O[C@H](O[C@H]2[C@H](O)[C@@H](O)[C@@H](O[C@H]3[C@H](O)[C@@H](O)[C@@H](O[C@H]4[C@H](O)[C@@H](O)C(O)O[C@@H]4CO)O[C@@H]3CO)O[C@@H]2CO)[C@H](O)[C@@H](O)[C@@H]1O[C@H]1O[C@H](C)[C@@H](N[C@H]2C=C(CO)[C@@H](O[C@H]3O[C@H](CO)[C@@H](O[C@H]4O[C@H](C)[C@@H](N[C@H]5C=C(CO)[C@@H](O)[C@H](O)[C@H]5O)[C@H](O)[C@H]4O)[C@H](O)[C@H]3O)[C@H](O)[C@H]2O)[C@H](O)[C@H]1O (stereo partly drawn) [Compound 14, D6-O-Propionyl-acarviostatin II03]
		10.7 ± 2.6 µM		0.059 ± 0.007 µM	4.46 ± 0.14 µM	CCCC(=O)OC[C@H]1O[C@H](O[C@H]2[C@H](O)[C@@H](O)[C@@H](O[C@H]3[C@H](O)[C@@H](O)[C@@H](O[C@H]4[C@H](O)[C@@H](O)C(O)O[C@@H]4CO)O[C@@H]3CO)O[C@@H]2CO)[C@H](O)[C@@H](O)[C@@H]1O[C@H]1O[C@H](C)[C@@H](N[C@H]2C=C(CO)[C@@H](O[C@H]3O[C@H](CO)[C@@H](O[C@H]4O[C@H](C)[C@@H](N[C@H]5C=C(CO)[C@@H](O)[C@H](O)[C@H]5O)[C@H](O)[C@H]4O)[C@H](O)[C@H]3O)[C@H](O)[C@H]2O)[C@H](O)[C@H]1O (stereo partly drawn) [Compound 15, D6-O-Butyryl-acarviostatin II03]
		7.28 ± 0.1 µM		0.052 ± 0.003 µM	1.34 ± 0.03 µM	CCC(C)C(=O)OC[C@H]1O[C@H](O[C@H]2[C@H](O)[C@@H](O)[C@@H](O[C@H]3[C@H](O)[C@@H](O)[C@@H](O[C@H]4[C@H](O)[C@@H](O)C(O)O[C@@H]4CO)O[C@@H]3CO)O[C@@H]2CO)[C@H](O)[C@@H](O)[C@@H]1O[C@H]1O[C@H](C)[C@@H](N[C@H]2C=C(CO)[C@@H](O[C@H]3O[C@H](CO)[C@@H](O[C@H]4O[C@H](C)[C@@H](N[C@H]5C=C(CO)[C@@H](O)[C@H](O)[C@H]5O)[C@H](O)[C@H]4O)[C@H](O)[C@H]3O)[C@H](O)[C@H]2O)[C@H](O)[C@H]1O (stereo partly drawn) [Compound 16, D6-O-2-Methyl-butyryl-acarviostatin II03]
	0.296 ± 0.007 µM	11.1 ± 0.24 µM	31.6 ± 4.13 µM			C[C@H]1O[C@H](O[C@H]2[C@H](O)[C@@H](O)[C@@H](O[C@H]3[C@H](O)[C@@H](O)[C@@H](O[C@H]4[C@H](O)[C@@H](O)[C@@H](O[C@H]5[C@H](O)[C@@H](O)C(O)O[C@@H]5CO)O[C@@H]4CO)O[C@@H]3CO)O[C@@H]2CO)[C@H](O)[C@@H](O)[C@@H]1N[C@H]1C=C(CO)[C@@H](O)[C@H](O)[C@H]1O (stereo partly drawn) [Compound 17, acarviostatin I03]
	0.402 ± 0.008 µM	3.8 ± 0.78 µM	11.7 ± 2.52 µM			CCCC(=O)OC[C@H]1O[C@H](O[C@H]2[C@H](O)[C@@H](O)[C@@H](O[C@H]3[C@H](O)[C@@H](O)[C@@H](O[C@H]4[C@H](O)[C@@H](O)C(O)O[C@@H]4CO)O[C@@H]3CO)O[C@@H]2CO)[C@H](O)[C@@H](O)[C@@H]1O[C@H]1O[C@H](C)[C@@H](N[C@H]2C=C(CO)[C@@H](O)[C@H](O)[C@H]2O)[C@H](O)[C@H]1O (stereo partly drawn) [Compound 18, Bu-Aca I03]
		9.67 ± 0.1 µM		0.061 ± 0.005 µM	1 ± 0.12 µM	CC(O)CC(=O)OC[C@H]1O[C@H](O[C@H]2[C@H](O)[C@@H](O)[C@@H](O[C@H]3[C@H](O)[C@@H](O)[C@@H](O[C@H]4[C@H](O)[C@@H](O)C(O)O[C@@H]4CO)O[C@@H]3CO)O[C@@H]2CO)[C@H](O)[C@@H](O)[C@@H]1O[C@H]1O[C@H](C)[C@@H](N[C@H]2C=C(CO)[C@@H](O[C@H]3O[C@H](CO)[C@@H](O[C@H]4O[C@H](C)[C@@H](N[C@H]5C=C(CO)[C@@H](O)[C@H](O)[C@H]5O)[C@H](O)[C@H]4O)[C@H](O)[C@H]3O)[C@H](O)[C@H]2O)[C@H](O)[C@H]1O (stereo partly drawn) [Compound 19, Hbu-Aca II03]
		9.93 ± 0.5 µM		0.08 ± 0.003 µM	1.43 ± 0.08 µM	CC(C)CC(=O)OC[C@H]1O[C@H](O[C@H]2[C@H](O)[C@@H](O)[C@@H](O[C@H]3[C@H](O)[C@@H](O)[C@@H](O[C@H]4[C@H](O)[C@@H](O)C(O)O[C@@H]4CO)O[C@@H]3CO)O[C@@H]2CO)[C@H](O)[C@@H](O)[C@@H]1O[C@H]1O[C@H](C)[C@@H](N[C@H]2C=C(CO)[C@@H](O[C@H]3O[C@H](CO)[C@@H](O[C@H]4O[C@H](C)[C@@H](N[C@H]5C=C(CO)[C@@H](O)[C@H](O)[C@H]5O)[C@H](O)[C@H]4O)[C@H](O)[C@H]3O)[C@H](O)[C@H]2O)[C@H](O)[C@H]1O (stereo partly drawn) [Compound 20, isoVa-Aca II03]
		2.34 ± 0.23 µM	191 ± 15.2 µM			C[C@H]1O[C@H](O[C@H]2[C@H](O)[C@@H](O)[C@@H](O[C@H]3[C@H](O)[C@@H](O)C(O)O[C@@H]3CO)O[C@@H]2CO)[C@H](O)[C@@H](O)[C@@H]1N[C@H]1C=C(CO)[C@@H](O)[C@H](O)[C@H]1O (stereo partly drawn) [acarbose, reference compound]
